{
  "source": "paper PMC7845594",
  "about": "“Novel Immune Modulators Enhance Caenorhabditis elegans Resistance to Multiple Pathogens” (mSphere, 2021)",
  "origin": "cited, not measured here",
  "tested_on": "GroEL and GroES families of bacterial chaperones",
  "design": "method as in PMID 27184767, PMID 24418775",
  "settings": "cited from earlier work",
  "data": [
    {"smiles": "CNC(=O)Oc1c(Br)cc2sc(=O)oc2c1Br", "note": "[LK34]", "values": [
      {"measurement": "Inhibition of GroEL and GroES chaperones", "result": "potent inhibitor"}
    ]}
  ]
}
